Entries after “also recorded” stand apart in the source; their conditions may differ.
Tests used:
frataxin [1] = assay: Quantitative real-time RT-PCR of frataxin expression in HEK 293 cells; type: cell-based, human
Description: The human cell line HEK 293 (Human Embryonic Kidney) grown in Dulbecco's modified Eagle's medium (DMEM, Sigma) with the addition of 10% foetal bovine serum (FBS) (v/v), glutamine 2 mM, penicillin 100 unit/ml and streptomycin 100 μg/ml is kept in an incubator at a temperature of 37° C. and 5% CO2. Preferably the HEK 293 cells, cultured on 60 mm plates at a concentration of 0.5×10^6, after at least 14 hours of growth have a 70-80% confluence. […] Extraction of the RNA from the cells is performed according to the indications contained in the QIAconnect Gene Expression (Qiagen) kit. Particularly the samples are lysed and homogenated. Ethanol is then added to the treated samples to provide ideal conditions for the bond with the silica-gel RNase membrane. In this way the RNA binds and the contaminants are washed; the pure RNA is concentrated and eluted. The concentration of the extracted RNA is determined by UV spectrophotometric method under suitable reading conditions. The reverse transcription reaction is performed with the GeneAmp RNA PCR core (Applied Biosystems) kit according to the indications provided by the manufacturer. Quantification of the reverse-transcribed product is performed using fluorescent probes capable of hybridizing and specifically pairing DNA regions of interest. The probes used according to the invention are Probe Hs 00175940_m1 and Probe Hs 99999903 ml (Applied Biosystems). Particularly the probe defined Hs 00175940_m1 represents the specific probe able to recognise and hybridize the human frataxin gene, while the probe Hs 99999903 ml recognises the human actin and is useful for normalising the mRNA values of the target. The analyzing step of the results is performed by substituting the mathematical formula 2^−ΔΔCt with the difference between the target threshold cycle in the samples treated and not treated (control) with diazoxide, normalised with the threshold cycle value of the reference gene (actin), in the case in question ΔCt=Ct Hs00175940—m1−Ct Hs99999903—m1. ΔΔCt=ΔCt(treated sample)−ΔCt(control sample) The result of the calculation 2^−ΔΔCt represents the relative quantification value. Said value permits determination of the quantity of frataxin (which represents the target) in the sample treated with diazoxide with respect to the quantity of frataxin in the sample not treated with diazoxide (which represents the control) normalised for the quantity of actin (which represents the reference or internal standard) in the same sample. For example a value of 1 is attributed to the control samples, i.e. HEK 293 cells not treated with diazoxide chosen as references.

frataxin [2] = assay: Western blot analysis of frataxin in HEK 293 cells; type: cell-based, human; conditions: for frataxin expression, western blot: 4 or 5 days after the initial treatment
Description: The human cell line HEK 293 (Human Embryonic Kidney) grown in Dulbecco's modified Eagle's medium (DMEM, Sigma) with the addition of 10% foetal bovine serum (FBS) (v/v), glutamine 2 mM, penicillin 100 unit/ml and streptomycin 100 μg/ml is kept in an incubator at a temperature of 37° C. and 5% CO2. Preferably the HEK 293 cells, cultured on 60 mm plates at a concentration of 0.5×10^6, after at least 14 hours of growth have a 70-80% confluence. […] The cells treated as described in example 1 are lysed with a lysis buffer (0.15 M NaCl, 5 mM EDTA, pH 8, 1% Triton X100, 10 mM Tris-Cl, pH 7.4) and transferred to microcentrifuge tubes. A quantity of approximately 50 μg of cell suspension is separated by electrophoresis in the presence of SDS (sodium dodecyl sulphate) at 17% (denaturing conditions). The resulting product is transferred onto nitrocellulose membranes. Identification of the presence of the target protein, i.e. the frataxin, is performed with a rabbit polyclonal primary antibody directed against said protein (Santa Cruz Biotechnology), and a goat-anti rabbit HRP secondary antibody (Pierce). The reaction was identified with enzymatic method by means of ECL plus system (Amersham).

frataxin [3] = assay: Quantitative real-time RT-PCR of frataxin expression in immortalized lymphoblastoid cell lines of FRDA patients; type: cell-based, human; conditions: FRDA patient lymphoblastoid cells, 24 hours
Description: Extraction of the RNA from the cells is performed according to the indications contained in the QIAconnect Gene Expression (Qiagen) kit. Particularly the samples are lysed and homogenated. Ethanol is then added to the treated samples to provide ideal conditions for the bond with the silica-gel RNase membrane. In this way the RNA binds and the contaminants are washed; the pure RNA is concentrated and eluted. The concentration of the extracted RNA is determined by UV spectrophotometric method under suitable reading conditions. The reverse transcription reaction is performed with the GeneAmp RNA PCR core (Applied Biosystems) kit according to the indications provided by the manufacturer. Quantification of the reverse-transcribed product is performed using fluorescent probes capable of hybridizing and specifically pairing DNA regions of interest. The probes used according to the invention are Probe Hs 00175940_m1 and Probe Hs 99999903 ml (Applied Biosystems). Particularly the probe defined Hs 00175940_m1 represents the specific probe able to recognise and hybridize the human frataxin gene, while the probe Hs 99999903 ml recognises the human actin and is useful for normalising the mRNA values of the target. The analyzing step of the results is performed by substituting the mathematical formula 2^−ΔΔCt with the difference between the target threshold cycle in the samples treated and not treated (control) with diazoxide, normalised with the threshold cycle value of the reference gene (actin), in the case in question ΔCt=Ct Hs00175940—m1−Ct Hs99999903—m1. ΔΔCt=ΔCt(treated sample)−ΔCt(control sample) The result of the calculation 2^−ΔΔCt represents the relative quantification value. Said value permits determination of the quantity of frataxin (which represents the target) in the sample treated with diazoxide with respect to the quantity of frataxin in the sample not treated with diazoxide (which represents the control) normalised for the quantity of actin (which represents the reference or internal standard) in the same sample. The expression level and therefore the quantity of frataxin of cells deriving from immortalized lymphoblastoid cell lines of FRDA patients treated as described in examples 2 and 3 was compared 24 hours after the treatment. […] In particular, the broken vertical line represents the threshold value above which the increase in frataxin expression can be seen. The experiment was conducted testing the cells with concentrations of diazoxide varying from 25 nM to 100 μM in combination with fixed concentrations of glucose 20 mM. The expression and therefore the quantity of frataxin in cells deriving from immortalized lymphoblastoid cell lines of FRDA patients was compared.

frataxin [4] = assay: Western blot analysis of frataxin in cells of FRDA patients; type: cell-based, human; conditions: FRDA patient cells, 24 hours after the initial treatment
Description: The cells treated as described in example 1 are lysed with a lysis buffer (0.15 M NaCl, 5 mM EDTA, pH 8, 1% Triton X100, 10 mM Tris-Cl, pH 7.4) and transferred to microcentrifuge tubes. A quantity of approximately 50 μg of cell suspension is separated by electrophoresis in the presence of SDS (sodium dodecyl sulphate) at 17% (denaturing conditions). The resulting product is transferred onto nitrocellulose membranes. Identification of the presence of the target protein, i.e. the frataxin, is performed with a rabbit polyclonal primary antibody directed against said protein (Santa Cruz Biotechnology), and a goat-anti rabbit HRP secondary antibody (Pierce). The reaction was identified with enzymatic method by means of ECL plus system (Amersham). […] It can be seen that the cells of the patients treated according to the invention present an evident band as expression of the quantity of frataxin present with respect to the non-treated control.

[5] = children treated with ibedenone; cited from earlier work
[6] = diazoxide in combination with glucose
[7] = diazoxide in combination with leucine

CC1=NS(=O)(=O)c2cc(Cl)ccc2N1 [diazoxide, 7-chloro-3-methyl-4H-1,2,4 benzothiadiazine 1,1-dioxide]
frataxin expression levels, deviation from the threshold line (frataxin [1]; HEK 293, diazoxide 100 μM combined with leucine 10 mM, 24 hours): significant deviation from the threshold line | increase in the quantity of frataxin with respect to the non-treated control over time (frataxin [1]; HEK 293, diazoxide 100 μM together with glucose 20 mM, 48 and 72 hours after the treatment): remains constant | quantity of frataxin / frataxin expression with respect to the non-treated control (frataxin [1]; HEK 293, diazoxide 100 μM with glucose 20 mM, 24 hours): increased quantity of frataxin; also recorded: significant deviation from the threshold line | frataxin expression levels, deviation from the threshold line (frataxin [1]; HEK 293, diazoxide only (25 nM or 100 μM without glucose), 24 hours): minimum deviation from the threshold line | frataxin quantity (band intensity) versus control cells (frataxin [2]; HEK 293, cells treated as in example 1 (diazoxide 100 μM with glucose 20 mM, 24 hours)): greater than that of the control cells | frataxin expression, western blot (frataxin [2]; [6]): maintain the increase in expression | frataxin expression, western blot (frataxin [2]; [7]): maintain the increase in expression | frataxin expression levels, deviation from the threshold line (frataxin [3]; diazoxide 100 μM combined with glucose 20 mM): significant deviation from the threshold line | effect on frataxin expression of the combination (frataxin [3]; [6]): synergic effect | effect on frataxin expression of the combination (frataxin [3]; [7]): synergic effect | frataxin expression levels, deviation from the threshold line (frataxin [3]; some particular concentrations of diazoxide (25 nM to 100 μM tested) with glucose 20 mM): minimum deviation from the threshold line | frataxin expression, western blot, with respect to the non-treated control (frataxin [4]; [6]): maintain the increase in expression | frataxin expression, western blot, with respect to the non-treated control (frataxin [4]; [7]): maintain the increase in expression

CC(C)C[C@H](N)C(=O)O [leucine]
frataxin expression levels, deviation with respect to the non-treated control (frataxin [1]; HEK 293, leucine only 10 mM, 24 hours): minimum deviation with respect to the non-treated control

COC1=C(OC)C(=O)C(CCCCCCCCCCO)=C(C)C1=O [ibedenone]
benefits at neurological level [5]: practically nil | children treated presenting an improvement in some of the symptoms [5]: 85%

Source: patent US8716250B2, “Diazoxide for the treatment of Friedreich's ataxia” (Universita' Degli Studi di Bari, priority 2008, dated 2014)
